In brackets after ≈: the same amount, converted by molar mass. Where two headings read alike, the source gives them in different places.
How the values were obtained:
M. tuberculosis H37Rv = assay: microbe, parasite or virus in culture; format: cell-based; conditions: for MIC: Mycobacterium tuberculosis
[1] = tested on: M. tuberculosis H37Rv strain; assay: Minimal effective dosage in the murine TB model; format: in vivo, Balb/C/J female mice; parameters: Mice weight: unit not given here; conditions: for Survival: No. death: 10 mice
Experimental: Four-week-old Balb/C/J female mice were infected intravenously with 10^6 CFU of M. tuberculosis H37Rv strain. On the day following the infection (D1), 10 mice were sacrificed to determine the exact baseline values of spleen weight and CFU counts in the lungs. The remaining mice were allocated to the following treatment groups: an untreated negative control group for survival monitoring, a positive control group treated for 1 month with isoniazid (INH) 25 mg/kg/d, […] test groups were treated with Quin18 and Quin19 at increasing dosages (25 mg/kg/d; 50 mg/kg/d; 100 mg/kg/d; 150 mg/kg/d) given by oral gavage, and two additional test groups were treated intravenously with Quin18 25 mg/kg/d and 100 mg/kg/d. All the groups contained 10 mice and were treated from D1 to D28, 5 days a week. The parameters used for assessing the severity of infection and the effectiveness of treatments were survival rate, spleen weight, gross lung lesions and CFU counts in the lungs.
The minimal effective dosage was defined as the minimal dosage able to prevent mortality of the mice, spleen enlargement and the occurrence of gross lung lesions. CFU counts were considered to be a more precise way of determining the dose-ranging efficacy of Quin18 and Quin19.
Survival rates between groups were plotted on a Kaplan-Meier curve and compared using the log-rank test.

[2] = Acute toxicity in healthy female CD-1 mice after a single oral treatment; format: in vivo; conditions: for Macroscopic autopsy: Observations: sacrifice at end of study
Experimental: The aim of this study was to evaluate the acute toxicity of two new compounds (Quin 18 and Quin 19) in healthy female CD-1 after a single oral treatment at D0.
Toxicity of treatment was evaluated by monitoring of animals (general signs of pharmacologic and toxicity effects, morbidity, mortality and evident signs of toxicity, as well as twice-weekly monitoring for clinical signs and body weight) until the end of the experiment (D14). At the end of the experiment, animals were sacrificed and macroscopic autopsy was performed.
Mice of each group were administered by per os (PO) injection at 10 ml/kg according to the standard operating procedure No. TEC-078. The recommended volume for per os (PO) administration in mice is 10 ml/kg.
Morbidity, mortality and evident signs of toxicity of mice were considered daily from D0 until the end of the experiment (D14 or D15).
Monitoring of mice for detailed behavioral and clinical observations was performed twice a week from D0 until the end of the experiment (D14 or D15) according to the standard operating procedures No. TEC-192.
Body weight of mice was monitored at D1, D2 and then twice a week until the end of the experiment (D14 or D15) according to the standard operating procedures No. TEC-108. Weight loss was assessed against the starting weight of each mouse at D0.
During the course of the experiment, animals were sacrificed if any of the following occurs: • Signs of suffering (cachexia, weakening, difficulty to move or to eat), • Compound toxicity (hunching, convulsions), • 25% body weight loss on any day. Sacrifice of Animals
At D14 or D15, animals were be sacrificed by CO2 inhalation and a macroscopic autopsy was performed.

[3] = molecular target: M. tuberculosis DNA gyrase (Mycobacterium tuberculosis, UniProt P9WG45+P9WG47); assay: biochemical
M. tuberculosis DNA gyrase, sequence (P9WG47 whole entry): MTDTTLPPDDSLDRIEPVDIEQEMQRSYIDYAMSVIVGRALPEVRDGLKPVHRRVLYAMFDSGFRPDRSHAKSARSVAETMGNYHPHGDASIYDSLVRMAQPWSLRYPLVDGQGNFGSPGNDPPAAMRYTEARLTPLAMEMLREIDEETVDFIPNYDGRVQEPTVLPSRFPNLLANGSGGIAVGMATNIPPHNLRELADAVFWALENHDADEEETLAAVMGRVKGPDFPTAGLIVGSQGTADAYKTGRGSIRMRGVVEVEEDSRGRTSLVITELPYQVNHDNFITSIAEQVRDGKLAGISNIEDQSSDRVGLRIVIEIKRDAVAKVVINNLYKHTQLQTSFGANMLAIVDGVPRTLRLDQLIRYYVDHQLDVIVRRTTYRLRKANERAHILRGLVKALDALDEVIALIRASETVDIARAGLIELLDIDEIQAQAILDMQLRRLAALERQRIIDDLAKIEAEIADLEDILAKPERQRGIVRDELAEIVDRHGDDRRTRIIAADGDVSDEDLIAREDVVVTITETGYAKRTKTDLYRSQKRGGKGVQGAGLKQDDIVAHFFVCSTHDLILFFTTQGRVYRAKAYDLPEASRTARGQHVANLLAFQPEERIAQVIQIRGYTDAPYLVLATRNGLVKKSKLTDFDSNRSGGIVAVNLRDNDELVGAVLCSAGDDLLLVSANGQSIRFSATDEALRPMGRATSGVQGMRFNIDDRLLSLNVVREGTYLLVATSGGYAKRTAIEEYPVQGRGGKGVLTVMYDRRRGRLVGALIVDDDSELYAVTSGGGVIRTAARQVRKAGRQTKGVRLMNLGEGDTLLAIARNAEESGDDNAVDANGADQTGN
M. tuberculosis DNA gyrase, sequence (P9WG45 whole entry): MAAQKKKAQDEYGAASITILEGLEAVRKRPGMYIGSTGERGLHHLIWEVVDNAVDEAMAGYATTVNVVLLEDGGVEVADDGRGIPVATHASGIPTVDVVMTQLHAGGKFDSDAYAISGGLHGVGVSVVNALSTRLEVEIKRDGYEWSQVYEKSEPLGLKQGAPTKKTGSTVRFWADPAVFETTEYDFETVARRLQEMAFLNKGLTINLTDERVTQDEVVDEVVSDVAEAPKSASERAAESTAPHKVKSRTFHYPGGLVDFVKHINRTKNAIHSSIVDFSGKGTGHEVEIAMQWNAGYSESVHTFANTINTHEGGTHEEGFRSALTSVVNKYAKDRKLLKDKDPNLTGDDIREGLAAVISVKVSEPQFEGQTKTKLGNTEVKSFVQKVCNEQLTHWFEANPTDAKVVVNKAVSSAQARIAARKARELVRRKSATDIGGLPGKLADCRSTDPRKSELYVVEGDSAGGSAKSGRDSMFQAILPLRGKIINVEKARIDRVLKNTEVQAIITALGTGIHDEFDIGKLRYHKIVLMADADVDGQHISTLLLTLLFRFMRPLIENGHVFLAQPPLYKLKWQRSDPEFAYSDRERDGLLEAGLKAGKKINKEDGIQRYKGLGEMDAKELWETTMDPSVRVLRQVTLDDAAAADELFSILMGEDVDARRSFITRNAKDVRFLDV

CCCCCCCCN1CCN(c2c(F)cc3c(=O)c(C(=O)O)cn(C4CC4)c3c2OC)CC1 [Quin 18, 1-cyclopropyl-6-fluoro-8-methoxy-7-(4-octylpiperazin-1-yl)-4-oxo-1,4-dihydroquinoline-3-carboxylic acid]
antibacterial activity against wild-type M. tuberculosis strain (in words) (M. tuberculosis H37Rv; H37Rv): high antibacterial activity | MIC (M. tuberculosis H37Rv; H37RV, Table 3, read-out: MIC M. tuberculosis H37Rv): 0.12 µM (≈ 0.0568 µg/mL) | MIC (M. tuberculosis H37Rv; H37Rv, Table 2, read-out: MIC (M. tuberculosis) WT): ≤ 0.12 µM | Mice weight ([1]; 25 mg/kg/j, Gavage): 19.4 ± 0.9 | Spleen weight ([1]; 25 mg/kg/j, Gavage): 258.6 ± 155 mg | Survival: No. death ([1]; 25 mg/kg/j, Gavage, D1 to D28, 5 days a week): 0 | Mice weight ([1]; 25 mg/kg/j, Intravenously): 20 ± 1 | Spleen weight ([1]; 25 mg/kg/j, Intravenously): 391 ± 89.7 mg | Survival: No. death ([1]; 25 mg/kg/j, Intravenously): 0 | Mice weight ([1]; 50 mg/kg/j, Gavage): 20 ± 1.6 | Spleen weight ([1]; 50 mg/kg/j, Gavage): 231 ± 63.3 mg | Survival: No. death ([1]; 50 mg/kg/j, Gavage): 0 | Mice weight ([1]; 100 mg/kg/j, Gavage): 19.4 ± 1.5 | Spleen weight ([1]; 100 mg/kg/j, Gavage): 210 ± 104.1 mg | Survival: No. death ([1]; 100 mg/kg/j, Gavage): 0 | Mice weight ([1]; 100 mg/kg/j, Intravenously): 20 ± 1.1 | Spleen weight ([1]; 100 mg/kg/j, Intravenously): 400 ± 7.7 mg | Survival: No. death ([1]; 100 mg/kg/j, Intravenously): 1 | Mice weight ([1]; 150 mg/kg/j, Gavage): 20.3 ± 0.8 | Spleen weight ([1]; 150 mg/kg/j, Gavage): 239.8 ± 129.3 mg | Survival: No. death ([1]; 150 mg/kg/j, Gavage): 0 | Efficacy in a mouse model of tuberculosis (in words) ([1]; given orally): outstanding efficacy | Spleen weights compared with untreated group (in words) ([1]; treated intravenously): spleen weights similar than the untreated group | Survival compared with untreated group (in words) ([1]; whatever the dosage (25, 50, 100 and 150 mg/kg/d) and the administration route): statistically superior to untreated group | Loss of body weight (in words) ([2]; Group A1: 100 mg/kg PO Q1Dx1): did not exhibited any loss of body weight | Tolerance (in words) ([2]; Group A1: 100 mg/kg PO Q1Dx1, polysorbate 80 0.4%, with sonication): well tolerated | Mean body weight (MBW) ([2]; Group A1: 100 mg/kg PO Q1Dx1, with sonication, D1): 31.33 ± 0.8 g | Mean body weight (MBW) ([2]; Group A1: 100 mg/kg PO Q1Dx1, with sonication, D2): 31.2 ± 0.7 g | Mean body weight (MBW) ([2]; Group A1: 100 mg/kg PO Q1Dx1, with sonication, D3): 30.3 ± 0.53 g | Mean body weight (MBW) ([2]; Group A1: 100 mg/kg PO Q1Dx1, with sonication, D4): 30.47 ± 0.78 g | Mean body weight (MBW) ([2]; Group A1: 100 mg/kg PO Q1Dx1, with sonication, D7): 31.63 ± 0.49 g | Mean body weight (MBW) ([2]; Group A1: 100 mg/kg PO Q1Dx1, with sonication, D11): 32.3 ± 1.37 g | Mean body weight (MBW) ([2]; Group A1: 100 mg/kg PO Q1Dx1, with sonication, D14): 31.77 ± 0.76 g | Macroscopic autopsy: Observations ([2]; Group A1: 100 mg/kg PO Q1Dx1): NTR | Mean body weight (MBW) ([2]; Group A1: polysorbate 80 0.4%, 10 mg/ml with sonication, 100 mg/kg PO Q1Dx1, D0, 100 mg/kg): 31.5 ± 1.48 g | Loss of body weight (in words) ([2]; Group A2: 200 mg/kg PO Q1Dx1): did not exhibited any loss of body weight | Tolerance (in words) ([2]; Group A2: 200 mg/kg PO Q1Dx1, polysorbate 80 0.4%, with sonication): well tolerated | Mean body weight (MBW) ([2]; Group A2: 200 mg/kg PO Q1Dx1, with sonication, D1): 31.13 ± 1.01 g | Mean body weight (MBW) ([2]; Group A2: 200 mg/kg PO Q1Dx1, with sonication, D2): 30.27 ± 0.74 g | Mean body weight (MBW) ([2]; Group A2: 200 mg/kg PO Q1Dx1, with sonication, D3): 30.7 ± 0.44 g | Mean body weight (MBW) ([2]; Group A2: 200 mg/kg PO Q1Dx1, with sonication, D7): 31.67 ± 0.49 g | Mean body weight (MBW) ([2]; Group A2: 200 mg/kg PO Q1Dx1, with sonication, D10): 31.73 ± 0.95 g | Mean body weight (MBW) ([2]; Group A2: 200 mg/kg PO Q1Dx1, with sonication, D14): 32.6 ± 1.35 g | Macroscopic autopsy: Observations ([2]; Group A2: 200 mg/kg PO Q1Dx1): NTR | Mean body weight (MBW) ([2]; Group A2: polysorbate 80 0.4%, 20 mg/ml with sonication, 200 mg/kg PO Q1Dx1, D0, 200 mg/kg): 30.2 ± 1.15 g | Loss of body weight (in words) ([2]; Group A3: 100 mg/kg PO Q1Dx1): did not exhibited any loss of body weight | Tolerance (in words) ([2]; Group A3: 100 mg/kg PO Q1Dx1, polysorbate 80 0.4%): well tolerated | Mean body weight (MBW) ([2]; Group A3: 100 mg/kg PO Q1Dx1, without sonication, D1): 29.8 ± 1.05 g | Mean body weight (MBW) ([2]; Group A3: 100 mg/kg PO Q1Dx1, without sonication, D2): 30.4 ± 1.25 g | Mean body weight (MBW) ([2]; Group A3: 100 mg/kg PO Q1Dx1, without sonication, D4): 30 ± 1.01 g | Mean body weight (MBW) ([2]; Group A3: 100 mg/kg PO Q1Dx1, without sonication, D7): 31.33 ± 0.74 g | Mean body weight (MBW) ([2]; Group A3: 100 mg/kg PO Q1Dx1, without sonication, D11): 32.3 ± 2.02 g | Mean body weight (MBW) ([2]; Group A3: 100 mg/kg PO Q1Dx1, without sonication, D15): 32.17 ± 1.94 g | Macroscopic autopsy: Observations ([2]; Group A3: 100 mg/kg PO Q1Dx1): NTR | Mean body weight (MBW) ([2]; Group A3: polysorbate 80 0.4%, 10 mg/ml without sonication, 100 mg/kg PO Q1Dx1, D0, 100 mg/kg): 29.9 ± 1.25 g | Loss of body weight (in words) ([2]; Group A4: 200 mg/kg PO): did not exhibited any loss of body weight | Mean body weight (MBW) ([2]; Group A4: 200 mg/kg PO 2Q1Dx1, without sonication, D1): 29.73 ± 1.22 g | Mean body weight (MBW) ([2]; Group A4: 200 mg/kg PO 2Q1Dx1, without sonication, D2): 30.2 ± 1.31 g | Mean body weight (MBW) ([2]; Group A4: 200 mg/kg PO 2Q1Dx1, without sonication, D5): 30 ± 1.45 g | Mean body weight (MBW) ([2]; Group A4: 200 mg/kg PO 2Q1Dx1, without sonication, D9): 30.93 ± 3.04 g | Mean body weight (MBW) ([2]; Group A4: 200 mg/kg PO 2Q1Dx1, without sonication, D13): 31.73 ± 2.64 g | Mean body weight (MBW) ([2]; Group A4: 200 mg/kg PO 2Q1Dx1, without sonication, D14): 31.33 ± 1.63 g | Macroscopic autopsy: Observations ([2]; Group A4: 200 mg/kg PO 2Q1Dx1): NTR | Tolerance (in words) ([2]; Group A4: 200 mg/kg PO, polysorbate 80 0.4%): well tolerated | Mean body weight (MBW) ([2]; Group A4: polysorbate 80 0.4%, 10 mg/ml without sonication, 200 mg/kg PO 2Q1Dx1 (2 hours between the 2 injections), D0, 200 mg/kg): 29.5 ± 0.89 g | Autopsy, macroscopic observations (in words) ([2]; all treated groups): No particular sign was observed | Dose up to which well tolerated (maximal solubility) ([2]; in polysorbate 80 0.4%, PO, female mice): up to 200 mg/kg | Signs of toxicity at the dose levels tested (in words) ([2]; mice): no signs of toxicity | IC50 [3]: 195 µM

— patent US10087165B2, “Fluoroquinolones and use thereof to treat bacterial infections” (UNIVERSITÉ PIERRE ET MARIE CURIE—PARIS 6 (UPMC), priority 2014, dated 2018)
